Measurements taken from US20260274810A1, “NOVEL MITOFUSIN INHIBITORS” (ALBERT EINSTEIN COLLEGE OF MEDICINE, priority 2023, published 2026).
pIC50: −log10 of the molar value.

Key:
[1] = tested on: Tomm20, mitotracker green, mtDNA/nDNA, mitochondrial biogenesis markers; assay: Mitochondrial biomass and biogenesis markers; assay type: cell-based
Procedure: Western blot. Western blots were performed from whole cell lysates (WCL) prepared in lysis buffer containing 50 mM Tris-HCl pH 7.5, 1% Triton X-100, 150 mM NaCl, 5 mM MgCl2, 1 mM EGTA and 10% glycerol in the presence of protease inhibitor cocktail (Roche). WCL were separated on a 4-12% NuPAGE MES gel (Invitrogen), transferred into a PVDF membrane, block for 1 hr and immunoblot with the corresponding anti-bodies.
Analysis of mitochondrial biogenesis-related genes by q-PCR. Total RNA was extracted by using RNeasy Mini Kit (Qiagen) followed by cDNA synthesis using the SuperScript IV VILO Master Mix (Thermo Scientific), both performed according to the manufacturer's protocol. q-PCR was performed using the following primers: […]
For the q-PCR reaction, Power SYBR Green master mix (Thermo Scientific) was used according to the manufacturer's instructions. Briefly, each reaction consisted of 10 ng cDNA, 5 μL Power SYBR Green master mix, 200 nM primers (forward and reverse), and RNase-free water up to 10 μL. q-PCR was performed on the ViiA 7 Real-Time PCR System (Thermo Scientific) with the following cycle parameter: 95° C. for 10 min, 40 cycles of 95° C. for 15 s, and 60° C. for 1 min. q-PCR products were analyzed by melting curves for unspecific products or primer dimer formation. Rpi39 was used as housekeeping gene and 2^−ΔΔCT method was applied to determine the relative mRNAs expression. […]

MEFs [2] = assay: Mitochondrial membrane potential (TMRE); assay type: cell-based, mouse
Procedure: Mitochondrial depolarization assay (mtΔΨ). MEFs (10^4 cells/well) were seeded in a 96-well black plate and treated with MASM7 or MFI8 for 6 hrs. Following treatments, cells were stained with 250 nM TMRE (Sigma; Cat. 87917) for 20 min at 37° C. Subsequently, cells were washed with thrice with PBS. Fluorescence intensity was detected by a M100 microplate reader (TECAN, Ex: 540 nm/Em: 579 nm).

MEFs [3] = assay: RNA-seq; assay type: cell-based, mouse
Text: RNA-seq. Sequencing results were demultiplexed and converted to FASTQ format using Illumina bcl2fastq software. The sequencing reads were adapter and quality trimmed with Trimmomatic and then aligned to the mouse genome (build mm10/GRCm38) using the splice-aware STAR aligner. The featureCounts program was utilized to generate counts for each gene based on how many aligned reads overlap its exons. These counts were then normalized and used to test for differential expression using negative binomial generalized linear models implemented by the DESeq2 R package.

MEFs [4] = assay: Metabolomics (TCA cycle, NAD/NADH); assay type: cell-based, mouse
Procedure: Metabolomics. MEFs were treated with MASM7 and MFI8. Cells were harvested using a cell scraper and centrifuged at 1200 rpm in 4° C. for 3 min. Each cell pellet sample was suspended into 250 to 700 μL of 80% aqueous methanol in an Eppendorf tube. The samples were vortex mixed for 15 s and sonicated in an ice-water bath for 5 min, followed by centrifugal clarification at 15,000 rpm and 5° C. in an Eppendorf 5424R centrifuge. The clear supernatants were collected. A standard stock solution of TCA cycle carboxylic acids, NAD and NADH was prepared in 80% methanol as S1. This standard solution S1 was serially diluted 1 to 4 (v/v) with the same solvent to make standard solutions S2 to S10. 20 μL of each standard solution and an aliquot of the clear supernatant from each cell was mixed with 20 μL of an internal standard solution containing 9 ^13C- or deuterium labeled analogues of the TCA cycle carboxylic acids (except isocitric acid), 20 μL of 200 mM 3-NPH solution and 20 μL of 150 mM of EDC solution. The mixtures were allowed to react at 30° C. for 30 min. After reaction, 120 μL of water was added to each solution. 10 μL of the resultant solutions was injected into a C18 UPLC column to quantitate the TCA cycle carboxylic acids by UPLC-MRM/MS with (−) ion detection, according to the procedure we described in a publication.

U2OS cells = assay: Minority MOMP imaging; assay type: cell-based; details: U2OS cells expressing CytoGFP and MitoCherry, 3 h
Procedure: Minority MOMP. U2OS cells (100,000) were seeded onto glass coverslips and transfected with 250 ng each of CytoGFP and Mito-mCherry as previously described 39. 16 h after transfection, cells were treated with compounds for 3 h and then fixed in 4% paraformaldehyde. Cells were imaged on a Zeiss LSM880 with Airyscan using a 63×1.4 NA objective. Subsequent to acquisition, images were processed using the Airyscan processing function in ZEN software. Minority MOMP was quantified by manually scoring the co-localisation of CytoGFP and mito-mCherry.

MEFs [5] = assay: DNA damage, γH2AX immunofluorescence; assay type: cell-based, mouse
Procedure: Immunofluorescent analysis and microscopy. Cells were treated with MASM7, MFI8 and or Q-VD-OPh at ~70% confluence for 6 h. After treatments, cells were washed with PBS and fixed with 4% PFA for 15 min. Then cells were permeabilized with 0.1% Triton X-100 in PBS for 10 min. Cells were blocked with 5% BSA in PBS-T and incubated overnight with primary antibodies as indicated; γH2AX (Sigma; 05-636, 1:100 dilution). After incubation with primary antibodies, cells were washed with PBS and incubated with the appropriate mouse secondary antibody (ThermoFisher Scientific; A-11001) in the blocking solution. After PBS washes, coverslips were dipped in water and mounted on glass slides using Vectashield containing DAPI (Vector laboratories). Images were taken with Leica SP5 inverted confocal microscope. Data were analyzed with ImageJ.

MEFs [6] = assay: Mitochondrial aspect ratio (Mito AR), live cell imaging
Procedure: Live cell imaging. MEFs were seeded on chamber slides (MatTek Corporation: 35 mm dishes, No. 1.5, 14 mm glass diameter) at ~70% confluence. […] Images were taken with Leica SP5 inverted confocal microscope. Data were analyzed with Image J software. >200 mitochondria were measured per condition in mitochondrial aspect ratio.
Measurement of mitochondrial aspect ratio (Mito AR). Images that depict stained mitochondria with mitotracker green were analyzed using FIJI We measured for each mitochondrion its length and width. Then, we divided the length by the width for each mitochondrion to get its mitochondrial aspect ratio. >200 mitochondria were measured per treatment.
MEFs were seeded on chamber slides (MatTek Corporation: 35 mm dishes, No. 1.5, 14 mm glass diameter) at ~70% confluence. Cells were treated with compounds. Then, cells were stained with MitoTracker Green (200 nM, Invitrogen) for 20 min at 37° C. After treatments, media was replaced with FluoroBrite™ DMEM (Invitrogen) supplemented with 10% FBS, 100 U ml^−1 penicillin/streptomycin, 2 mM L-glutamine and compound prior image acquisition. Images were taken with Leica SP5 inverted confocal microscope. Data were analyzed with Image J software. >200 mitochondria were measured per condition in mitochondrial aspect ratio. Measurement of mitochondrial aspect ratio (Mito AR). Images that depict stained mitochondria with mitotracker green were analyzed using FIJI software. Each mitochondrion was measured for its length and width. Then, the length was divided by the width for each mitochondrion to get its mitochondrial aspect ratio. >200 mitochondria were measured per treatment.

[7] = MFN1/MFN2 DKO MEFs reconstituted with WT MFN2

## Cc1cccc(NC(C)c2cc(Cl)ccc2O)c1C (stereo not shown) [MFI8]
[1]
  gene expression levels of mitochondrial biogenesis markers: no alteration
[1]; mitochondrial biomass
  Tomm20 protein levels, mitotracker green intensity and mitochondrial to nuclear DNA ratio: neither MASM7 nor MFI8 altered
MEFs [2]; [7]
  mitochondrial membrane potential: significantly decreased mitochondrial membrane potential
MEFs [2]; WT MEFs, 6 hrs
  mitochondrial membrane potential: concentration responsively decreased mitochondrial membrane potential
MEFs [3]; MEFs
  genes involved in DNA damage response: up-regulated several genes that are involved in DNA damage response
MEFs [3]; RNA-seq
  gene expression of subunits of the respiratory complexes: reduced the gene expression of several nuclear-encoded subunits of the respiratory complexes
MEFs [4]
  metabolites of the TCA cycle: markedly reduced several metabolites such as malate, oxaloacetate, and α-ketoglutarate
  total NAD+/NADH ratio: decreased the total NAD^+/NADH ratio
U2OS cells
  MOMP: induced MOMP, albeit at modest levels
MEFs [5]; MFN1/MFN2 DKO MEFs
  γH2AX foci / DNA damage: not in MFN1/MFN2 DKO MEFs
MEFs [5]; WT MEFs, 6 h
  γH2AX foci / DNA damage: increased γH2AX foci
MEFs [6]; [7]
  mitochondrial aspect ratio: significantly decreased mitochondrial aspect ratio
MEFs [6]; Mus musculus, 6 h, read-out: IC50 (decrease of Mito AR)
  pIC50: 5.39
MEFs [6]; co-treated with MASM7 in MEFs
  mitochondrial aspect ratio: reduced mitochondrial aspect ratio
MEFs [6]; double knockout of MFN1 and MFN2
  mitochondrial aspect ratio: completely abolished MFI8 from reducing mitochondrial aspect ratio
MEFs [6]; either MFN1 or MFN2 knocked out
  mitochondrial aspect ratio: still capable of reducing mitochondrial aspect ratio
